# Assay: Experiment of aldehyde-trapping ability in vitro
# Details: for percentage content of the complex product (HPLC, 254 nm): nonanal 1.0 eq, compound 1.0 eq, 20 to 23° C.
# Protocol: Objective: xerophthalmia is caused by inflammations inside the eye, and these inflammations would produce some aldehydes in vivo. If these aldehydes are not eliminated in time, the symptoms of inflammations would be accelerated and worsen the xerophthalmia. In this experiment, by simulating the in vivo environment, a relatively preferred compound was selected according to the complexing ability of the drug and the aldehyde in vivo.
# Process: sulfobutyl-B-cyclodextrin (310 mg) was dissolved in phosphate buffer (1.25 mL) to prepare a solution.
# Nonanal (5.0 mg, 32 μmol, 1.0 eq) and glyceryl trioleate (300 mg) were added into a reaction flask at room temperature. After the above prepared solution was added thereto, linoleic acid (300 mg) was then added thereto, and finally a dimethyl sulfoxide (0.15 mL) solution containing the compound of the present disclosure (32 μmol, 1.0 eq) was added thereto. The reaction solution was reacted at 20 to 23° C.
# After stirring and reacting for 10 minutes, 100 minutes, 200 minutes, and 300 minutes, respectively, the reaction solution was allowed to stand for 2 minutes, layered and then sampled for high performance liquid detection.
# Sampling method: 25 μL of the upper emulsion layer and 50 μL of the lower aqueous phase were sampled with a pipette, and diluted with 1 mL of methanol.
# Nonanal has weak ultraviolet absorption at a wavelength of 254 nm, and has little influence on the content of complexation product as a whole. Therefore, the percentage content of the complexed compound at 254 nm in high performance liquid phase was compared to observe the ability of the compound to trap and complex aldehyde.
# The HPLC analysis method is shown in Table 1 below, which is XBRIGE 2.5 μm, 3.0*100 mm 5-95CD_XBEH_12 min_0.8.lcm
structure (smiles),measurement,setting,value
CC(C)(O)c1ncc(-c2nc(C(C)(C)O)c(N)s2)cc1N [Compound 1],Area under the curve AUC,"complex product content against time, 10 to 300 minutes",1874 min. conversion rate
same,Slope,"linear fit of complex product content against time, 10 to 300 minutes",0.0394
same,"percentage content of the complex product (HPLC, 254 nm)",reaction time 10 minutes,1.095
same,"percentage content of the complex product (HPLC, 254 nm)",reaction time 100 minutes,4.751
same,"percentage content of the complex product (HPLC, 254 nm)",reaction time 200 minutes,8.764
same,"percentage content of the complex product (HPLC, 254 nm)",reaction time 300 minutes,12.496
